Data reported in PubChem BioAssay (NCI).
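These data come from cells grown in 96-well plates and exposed to compound for 48 hours at five concentrations. Abbreviation: GI50, concentration required for 50% inhibition of growth. TGI denotes the concentration required for complete inhibition of growth.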

Key:
Experiment in all cases: NCI anticancer screen, dose series, 48 h
[1] = test system: SF-539 CNS
[2] = test system: SF-295 CNS
[3] = test system: SW-620 colon
[4] = test system: NCI/ADR-RES ovarian
[5] = test system: HOP-92 NSCLC
[6] = test system: HOP-62 NSCLC
[7] = test system: M14 melanoma
[8] = test system: OVCAR-4 ovarian
[9] = test system: NCI-H460 lung
[10] = test system: KM12 colon

Row | SMILES | GI50 [1] [µM] | TGI [1] [µM] | GI50 [2] [µM] | TGI [2] [µM] | GI50 [3] [µM] | TGI [3] [µM] | GI50 [4] [µM] | TGI [4] [µM] | GI50 [5] [µM] | TGI [5] [µM] | GI50 [6] [µM] | TGI [6] [µM] | GI50 [7] [µM] | TGI [7] [µM] | GI50 [8] [µM] | TGI [8] [µM] | GI50 [9] [µM] | TGI [9] [µM] | GI50 [10] [µM] | TGI [10] [µM]
1 | CSc1nnc(-c2cc3c([nH]c4ccccc43)c(-c3cccc(O)c3)n2)n1-c1ccc(C)cc1 | 2.81 | 14.1 | 2.59 | 9.62 | 5.8 | > 100 | 5.64 | > 100 | 1.75 | 7.59 | 2.47 | 7.45 | 3.83 | > 100 | 2.73 | 8.61 | 3.31 | 14.6 | 3.86 | > 100
2 | O=C(NCc1ccco1)C1CCN(S(=O)(=O)c2ccc(Cl)cc2)CC1 | > 100 | > 100 | 81.6 | > 100 | > 100 | > 100 | > 100 | > 100 | > 100 | > 100 | > 100 | > 100 | – | – | 54.9 | > 100 | 47.5 | > 100 | > 100 | > 100
3 | NC(Cc1cccnn1)C(=O)O (stereo not drawn) | – | > 100 | – | > 100 | – | > 100 | – | > 100 | – | > 100 | – | > 100 | – | > 100 | – | > 100 | – | > 100 | – | > 100
4 | COc1ccc(/C=C2\COc3ccc(O)c(O)c3C2=O)cc1OC | 1.57 | 3.03 | 2.7 | 7.18 | – | – | 1.7 | 17.4 | 2.18 | 5.91 | 5.98 | 39.3 | 1.43 | 3.31 | 1.61 | 13.3 | 1.83 | 5.02 | – | –
5 | Cc1cc2c3c([n+](C)c4ccc(F)cc4c3c1)-c1cc(F)ccc1N2C | 3.28 | 20.6 | 7.54 | > 100 | 13.5 | > 100 | > 100 | > 100 | 16.4 | 46 | 9.84 | > 100 | 23.4 | 62.9 | 22.1 | > 100 | 15.4 | 49.5 | 4.81 | 44.1
6 | COC(=O)c1c2c(c(C)[n+]([O-])c1C)C(=O)C(NCc1ccc(F)cc1)=CC2=O | 1.72 | 3.15 | 1.42 | 3 | 1.17 | 3.2 | 1.68 | 5.53 | 2.31 | 4.61 | 2.4 | 22.5 | 1.21 | 2.69 | 0.519 | 1.87 | 0.792 | 5.98 | 1.66 | 6.49
7 | COc1c(-c2ccc3c(c2)OCO3)oc2cc(O)cc(O)c2c1=O | – | > 100 | – | > 100 | – | – | – | > 100 | – | > 100 | – | 55.5 | – | > 100 | – | 95 | – | > 100 | – | > 100
